Consider 36 compounds from US9776972B2, “Pyrazole derivatives as arginine methyltransferase inhibitors and uses thereof” (priority 2013, dated 2017).

Bounds are passed on as bounds.

One test concerns the target human PRMT3 (Homo sapiens, UniProt O60678). Description: PRMT3 Biochemical Assay (3H-SAM Flashplate, peptide substrate). The note with it: single experiment or average of multiple experiments.
A further test deals with T1, human PRMT1 (Homo sapiens, UniProt Q99873).
T1 construct: GST-tagged PRMT1; made in house; host or cells: High Five insect cells (baculovirus)
T1 sequence (Q99873 with tags, fused parts or gaps): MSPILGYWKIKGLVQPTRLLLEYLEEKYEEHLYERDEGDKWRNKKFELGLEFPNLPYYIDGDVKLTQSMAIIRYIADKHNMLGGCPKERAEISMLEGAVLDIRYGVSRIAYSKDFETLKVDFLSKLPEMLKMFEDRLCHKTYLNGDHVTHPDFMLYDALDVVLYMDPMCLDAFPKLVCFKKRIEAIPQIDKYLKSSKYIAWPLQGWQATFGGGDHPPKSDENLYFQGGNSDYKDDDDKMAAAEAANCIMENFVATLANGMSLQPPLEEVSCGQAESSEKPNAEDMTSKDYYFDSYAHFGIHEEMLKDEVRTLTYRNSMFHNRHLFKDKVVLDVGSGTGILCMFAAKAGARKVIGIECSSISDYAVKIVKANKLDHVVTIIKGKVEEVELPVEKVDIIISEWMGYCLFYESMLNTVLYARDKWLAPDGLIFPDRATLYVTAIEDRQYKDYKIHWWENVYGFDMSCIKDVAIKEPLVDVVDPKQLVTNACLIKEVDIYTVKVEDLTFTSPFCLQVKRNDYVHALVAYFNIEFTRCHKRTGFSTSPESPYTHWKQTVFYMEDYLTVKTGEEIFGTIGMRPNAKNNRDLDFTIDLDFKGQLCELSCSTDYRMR
Nature of the test: PRMT1 Biochemical Assay (3H-SAM Flashplate, peptide substrate). The note with it: single experiment or average of multiple experiments. The procedure, abridged:
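GST-tagged PRMT1 from baculovirus-infected cells, preincubated with compounds 30 min at room temperature in 20 mM Bicine pH 7.6, 1 mM TCEP, 0.005% BSG, 0.002% Tween 20. Reaction started with ³H-SAM plus biotinylated peptide, stopped with 300 µM cold SAM.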

human PRMT3, sequence (O60678 with tags, fused parts or gaps): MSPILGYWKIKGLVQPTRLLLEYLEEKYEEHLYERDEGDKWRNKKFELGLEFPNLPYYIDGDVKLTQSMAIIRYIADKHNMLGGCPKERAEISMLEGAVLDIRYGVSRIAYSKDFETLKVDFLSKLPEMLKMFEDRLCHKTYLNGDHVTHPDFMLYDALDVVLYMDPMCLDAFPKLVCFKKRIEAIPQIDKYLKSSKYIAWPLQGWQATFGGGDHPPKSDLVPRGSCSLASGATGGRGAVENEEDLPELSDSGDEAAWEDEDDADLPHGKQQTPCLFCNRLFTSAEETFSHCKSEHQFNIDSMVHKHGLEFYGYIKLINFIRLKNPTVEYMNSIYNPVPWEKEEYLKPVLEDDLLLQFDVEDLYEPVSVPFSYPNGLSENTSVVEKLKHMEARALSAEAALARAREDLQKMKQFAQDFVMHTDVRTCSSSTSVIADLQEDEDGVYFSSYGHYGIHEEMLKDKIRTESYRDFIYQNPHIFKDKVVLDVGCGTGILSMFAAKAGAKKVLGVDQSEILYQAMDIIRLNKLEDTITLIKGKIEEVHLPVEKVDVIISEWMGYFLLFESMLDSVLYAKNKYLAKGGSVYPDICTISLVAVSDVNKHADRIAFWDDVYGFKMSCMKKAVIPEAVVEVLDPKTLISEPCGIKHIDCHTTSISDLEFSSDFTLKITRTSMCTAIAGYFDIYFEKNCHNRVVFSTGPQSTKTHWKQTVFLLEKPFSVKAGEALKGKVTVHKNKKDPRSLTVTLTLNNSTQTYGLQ

With `CN(CCN)Cc1c[nH]nc1-c1ccc(F)cc1` [Compound 1], the midpoint of inhibition on human PRMT3, the IC50, lay at 2650 nM.
In the case of `CN(CCN)Cc1cn(C)nc1-c1ccc(F)cc1` [Compound 3], the IC50 (as a rule, the concentration that gives 50% inhibition) is 58.1 nM at human PRMT1 and 25500 nM against human PRMT3.
Take `CN(CCN)Cc1cnn(C)c1-c1ccc(F)cc1` [Compound 4]: at human PRMT1, half-maximal inhibition (IC50) was put at 152 nM.
On the same count and under the same terms, to `COCCn1cc(CN(C)CCN)c(-c2ccc(F)cc2)n1` [Compound 5] belongs 1190 nM.
As for `CCN(CCNC)Cc1c[nH]nc1-c1ccc(F)cc1` [Compound 9], the half-inhibitory concentration (IC50) against human PRMT3 worked out at 3160 nM.
In turn, `CNCCN(C)Cc1cnn(C)c1-c1ccc(F)cc1` [Compound 10] came in with a 50% inhibitory concentration (IC50) at human PRMT3 of 13400 nM.
Still for that read-out and setting: as for `CNCCN(C)Cc1cnn(CC2CCOCC2)c1-c1ccc(F)cc1` [Compound 12], the figure is greater than 50000 nM.
On the same count and under the same terms, as for `CNCCN(C)Cc1c[nH]nc1-c1cccc(N)c1` [Compound 32], the figure is 2760 nM.
Still for that read-out and setting: to `CNCCN(C)Cc1c[nH]nc1-c1cccc(NC(C)=O)c1` [Compound 42] belongs 2550 nM.
`CNCCN(C)Cc1c[nH]nc1-c1cccc(C(C)=O)c1` [Compound 44]: the 50% inhibitory concentration (IC50) at human PRMT3 came to 3440 nM.
On the same count and under the same terms, as for `CNCCN(C)Cc1c[nH]nc1-c1ccc(-c2ccccc2)cc1` [Compound 47], the figure is 530 nM; as for `CC(C)Oc1ccc(-c2n[nH]cc2CN(C)CCN)cc1` [Compound 67], 4580 nM.
In turn, `CN(CCN)Cc1n[nH]cc1-c1ccc(F)cc1` [Compound 69] gave a concentration for half-maximal inhibition (IC50) against human PRMT1 of 51.1 nM.
For `CN(CCN)Cc1c[nH]nc1-c1cccc(C#N)c1` [Compound 70], on human PRMT1, 200 nM corresponded to half-maximal inhibition (IC50).
Same read-out and setting: to `CN(CCN)Cc1c[nH]nc1-c1cccc(F)c1` [Compound 71] belongs 18.8 nM; to `CN(CCN)Cc1c[nH]nc1-c1ccccc1F` [Compound 72], 278 nM; to `CN(CCN)Cc1c[nH]nc1-c1ccccc1` [Compound 73], 126 nM.
Still for that read-out and setting: to `CN(CCN)Cc1c[nH]nc1-c1ccc(C(C)(C)C)cc1` [Compound 74] belongs 14.9 nM.
On the same count and under the same terms, to `CC(C)N(CCN)Cc1c[nH]nc1-c1ccc(F)cc1` [Compound 75] belongs 616 nM.
With `CN(CCN)Cc1cn(C2COC2)nc1-c1ccc(F)cc1` [Compound 77], the IC50 turned out to be 215 nM against human PRMT1 and 6290 nM against human PRMT3.
At human PRMT1, `NCCN(Cc1c[nH]nc1-c1ccc(F)cc1)C1CC1` [Compound 78] registered an IC50 of 328 nM.
Still for that read-out and setting: to `CN(CCN)Cc1cnn(C2COC2)c1-c1ccc(F)cc1` [Compound 81] belongs 435 nM.
For the compound `CN(CCN)Cc1c[nH]nc1-c1ccc(N2CCNCC2)cc1` [Compound 82], the IC50 was found to be 96.1 nM at human PRMT1 and 1590 nM on human PRMT3.
For the compound `CN(CCN)Cc1nn(C)cc1-c1ccc(C#N)cc1` [Compound 83], half-maximal inhibition at human PRMT1 (IC50) was put at 30.3 nM.
Same read-out and setting: to `CN(CCN)Cc1c[nH]nc1-c1ccc(C(F)(F)F)cc1C(F)(F)F` [Compound 85] belongs 234 nM.
As to `CN(CCN)Cc1c[nH]nc1-c1ccc(Cl)cc1Cl` [Compound 86], the IC50 turned out to be 24 nM against human PRMT1 and 5820 nM on human PRMT3.
Consider `COc1ccc(-c2n[nH]cc2CN(C)CCN)c(OC)c1` [Compound 87], for which, at human PRMT1, the IC50 was 172 nM.
In the case of `Cc1ccc(-c2n[nH]cc2CN(C)CCN)c(C)c1` [Compound 88], the concentration for half-maximal inhibition (IC50) at human PRMT1 is 128 nM; on human PRMT3 it was 8080 nM.
The corresponding values for `CN(CCN)Cc1c[nH]nc1-c1ccc(F)cc1Cl` [Compound 89] are 67.4 nM and 9560 nM.
With `Cc1ccc(-c2n[nH]cc2CN(C)CCN)c(Cl)c1` [Compound 90], the IC50 at human PRMT1 worked out at 41.3 nM; on human PRMT3, 6970 nM.
Take `Cc1ccc(Cl)c(-c2n[nH]cc2CN(C)CCN)c1` [Compound 91]: the IC50 at human PRMT1 amounted to 272 nM.
On to `CN(CCN)Cc1c[nH]nc1-c1ccc(C(F)(F)F)cc1` [Compound 92], for which the values for the IC50 against human PRMT1 and on human PRMT3 were 5.69 nM and 3140 nM, respectively.
For `CN(CCN)Cc1c[nH]nc1-c1ccc(OC(F)(F)F)cc1` [Compound 93], in that order: 4.64 nM and 3610 nM.
For the compound `CN(CCN)Cc1c[nH]nc1-c1ccc(OC(F)F)cc1` [Compound 94], the IC50 at human PRMT1 worked out at 7.97 nM; against human PRMT3 it was 5370 nM.
The corresponding values for `CN(CCN)Cc1c[nH]nc1-c1ccc(Cl)cc1` [Compound 95] are 7.84 nM and 2390 nM.
In the case of `CC(C)Oc1ccc(-c2n[nH]cc2CN(C)CCN)cc1Cl` [Compound 168], at human PRMT3, the midpoint of inhibition, the IC50, lay at 3910 nM.
